One series relates to rat lung membrane SMBS. Kind of series: Receptor-binding assessment test using rat lung membranes ([125I]-iodocyanopindolol ligand binding assay). To be noted: 1 μM test compound; ratio of inhibiting specific binding of [125I]-iodocyanopindolol to rat lung membrane SMBS. As to the method: Receptor-Binding Assessment Test of Compounds Using Rat Lung Membranes
The assessment test was carried out according to the method of Sugasawa, T. et al., J. Biol. Chem., 272, 21244-21252 (1997).
Preparation of Rat Lung Membranes
Lung taken out from SD male rat (7-week old under test, Charles River Laboratories Japan, Inc.) was removed trachea and blood vessels to shred and washed with iced tris-saline buffer (10 mM tris hydrochloric acid-154 mM sodium chloride, pH7.4). The resultant was homogenized by Hiscotron with ice-cold tris-saline buffer containing a homogenization buffer (1 mM ethylenediaminetetraacetic acid (EDTA), 1 mM 4-(2-aminoethyl)benzenesulfonyl fluoride (AEBSF), 5 μg/ml aprotinin, 5 μg/ml leupeptine) (maximum rate: 1 minute). The supernatant after low-speed centrifugation (1500×g, 20 minutes, 4° C.) was ultracentrifuged (100000×g, 20 minutes, 4° C.), and the pellet was suspended in tris-saline buffer to store at −80° C. The protein concentrations were determined by Bio-Rad Protein Assay Kit using bovine serum albumin (BSA) as a standard.
To each well in protein-nonabsorptive round-bottom 96-well assay plate (commercially available from Iwaki Glass Co., Ltd.) were added tris-saline buffer (200 μl) containing 1 nM [^125I]-iodocyanopindolol (commercially available from Amersham plc), 10 μM serotonine, 20 μm dl-propranolol, 10 μM phentolamine, 1.1 mM ascorbic acid and 100 μg lung membrane, and the mixture was pipetted to combine and then incubated at 37° C. for 30 minutes. The test compounds were dissolved in 100% dimethyl sulfoxide solution, and thereto was added 2 μl (final DMSO concentration: 1%). In order to calculate nonspecific binding amounts, to the mixture was added L-threo-3-(3,4-dihydroxyphenyl)-N-[3-(4-fluorophenyl)propyl]serine pyrrolidine amide at 100 μM of the final concentration as an alternative to the test compounds. During this time, 100 μl of 0.3% polyethyleneimine (PEI)/tris-saline buffer was added to MultiScreen plate (96-well B glass fiber, Millipore Cat. No. MAFB NOB10), and incubated for over 30 minutes. The resultant was filtered with aspiration (aspiration by the addition of 200 μl iced tris-saline buffer) to wash, and the reaction solutions on 96-well assay plate were filtered with aspiration to wash four times on MultiScreen plate. B glass fiber filter paper at the bottom of MultiScreen plate was punched out, and γ-ray doses of [^125I]-iodocyanopindolol trapped on the filter paper were determined as binding amounts. The binding amounts in the presence of DMSO (final concentration: 1%) were total binding amounts, and the binding amounts in the presence of 100 μM L-threo-3-(3,4-dihydroxyphenyl)-N-[3-(4-fluorophenyl)propyl]serine pyrrolidine amide were nonspecific binding amounts. The values subtracted the nonspecific binding amounts from the total binding amounts were the specific binding amounts. The binding activity of a compound was calculated according to the following formula, which was shown in the ratio of inhibiting the specific binding of [^125I]-iodocyanopindolol to rat lung membrane SMBS by the test compound.

In series [1] the test system is Corticosterone generation. Kind of series: Assessment test of steroid hormone synthesis inhibition (Corticosterone generation in rat adrenal gland cells). The class given is cell-based. The settings on record: 10 μM test article, rat adrenal cells with cAMP, 2 hours, read-out: Steroid Synthesis Inhibition Rate (%) (10 μM). From the text: Assessment Test of Steroid Hormone Synthesis Inhibition
• Cell Strainer (BD Falcon®) • Cell Titer-Glo® (Promega) • Collagenase from Clostridium histolyticum (Sigma-Aldrich) • Corticosterone EIA kit (Cayman) • Dimethylsulfoxide (referred to as DMSO hereinafter) (nacalai tesque) • D-MEM (GIBCO) • DNase I (Invitrogen) • Fetal Bovine Serums (referred to as FBS hereinafter) (Bioflud) • Multiple well plates for adhesive cell culture, 96 wells (IWAKI) • N^6,2′-O-Dibutyryladenosine 3′,5′-cyclic monophosphate sodium salt (referred to as cAMP hereinafter) (Sigma) • Penicillin Streptomycin Mixed Solution (nacalai tesque)
Control examples 1 to 4: Control example 1 was Example 350 of Patent Document 2. Control examples 2 to 4 were synthesized according to Patent Document 2.
Adrenal glands were taken out from rats, and removed excess connective tissues, adiposes and membranes in D-MEM. The adrenal glands were transferred to polytubes, and quickly segmentalized with scissors. Thereto was added D-MEM containing 1 mg/mL collagenase and 0.25 μL DNase 1, and then the mixture was shaken at 37° C. for 10 minutes in 80 times/minute. Then, the mixture was pipetted by 1 mL truncated pipette tip, and shaken again under the same condition. After 10 minutes, the mixture was pipetted again by 1 mL pipette tip, and the cell suspension was filtered through metal mesh. The filtrate was centrifuged at 4° C. for 5 minutes in 500 g. The supernatant was removed, and thereto was added a mixed solution of 0.16 M NH4Cl and 0.17 M Tris-HCl in 3 mL. The mixture was let stand on ice for 5 minutes, and then centrifuged under the same condition. Then, the supernatant was removed and then thereto was added D-MEM. The cell suspension was prepared and centrifuged under the same condition. Again, the supernatant was removed and then thereto was added D-MEM to give a cell suspension. The cell suspension was filtered by Cell Strainer (BD Falcon®). The filtrate was centrifuged under the same condition. After the completion of the centrifugation, the supernatant was removed, and thereto was added D-MEM containing 1% Penicillin Streptomycin Mixed Solution and 10% FBS. The mixture was seeded in Multiple well plate for adhesive cell culture, 96 wells (IWAKI) in 10000 cells/well, and incubated at 37° C. overnight in CO2 incubator.
Test article concentrations were prepared in DMSO to 2000 μM, and D-MEM containing 20 μM test article in D-MEM was prepared.
Cell-seeded plate was incubated overnight, and then the medium was removed and thereto was added D-MEM containing 20 μM test article in 50 μL/well. Then, to the mixture was promptly added D-MEM containing 20 μM cAMP in 50 μL/well so that the final concentration of the test article was 10 μM. After the addition of 2 types of D-MEM, the mixture was incubated at 37° C. for 2 hours in CO2 incubator. After 2 hours, the supernatant (50 μL) of the medium was collected. For cells, the cell toxicity of the test article was assessed according to a conventional method using Cell Titer-Glo® (Promega). For the collected supernatant, the Corticosterone concentration in the supernatant was determined according to a conventional method using Corticosterone EIA kit (Cayman).
The inhibition rate of 10 μM test article to Corticosterone generation was calculated according to the following formula confirming that the cell toxicity by the test article was not recognized.

Regarding `CNC(=O)NCCn1c(-c2ccc(C(=O)NC3CC3)cc2)cs/c1=N\c1cccc(F)c1` [Example 64], the melting point – broadly, the temperature of the solid-liquid transition – lay within 179 to 185 °C.

With `CNC(=O)NCCn1c(-c2ccc(CN3CCOCC3)c(C)c2)cs/c1=N\c1cccc(F)c1` [Example 27], the melting point was 151 to 152 °C.

As to `CCNC(=O)NCCn1c(-c2ccc(C(=O)N3CCOCC3)cc2)cs/c1=N\c1ccc(F)c(C)c1` [Example 58], the melting point lay within 196 to 203 °C.

On to `CNC(=O)NCCn1c(-c2ccc(CCN3CCOCC3)cc2)cs/c1=N\c1cccc(F)c1F` [Example 46], for which the melting point was 155 to 164 °C.

Regarding `CCNC(=O)NCCn1c(-c2ccc(C(=O)N3CCOCC3)cc2)cs/c1=N\c1cccc(Cl)c1` [Example 59], the melting point fell in the range of 191 to 198 °C. In addition, the “Binding Activity (%) (1 μM)” value in the series on rat lung membrane SMBS came out at 66%. In addition, the inhibition – broadly, how much of the control response was suppressed – at 10 µM in series [1] turned out to be 7%.

Turning to `CCNC(=O)NCCn1c(-c2ccc(C(=O)N3CCOCC3)cc2)cs/c1=N\c1cccc(Cl)c1` [Example 56], the melting point was 182 to 186 °C.

Take `CNC(=O)NCCn1c(-c2ccc(CN3CCOCC3)cc2C)cs/c1=N\c1cccc(F)c1` [Example 23]: the melting point is 119 to 121 °C.

In turn, `CCNC(=O)c1ccc(-c2cs/c(=N\c3ccc(F)c(F)c3)n2CCNC(=O)NC)cc1` [Example 62] displayed a melting point of 180 to 188 °C. In addition, the “Binding Activity (%) (1 μM)” value with rat lung membrane SMBS came out at 65%. Also, the inhibition at 10 µM in series [1] came out at 2%.

Regarding `CCNC(=O)NCCn1c(-c2ccc(C(=O)N3CCOCC3)cc2)cs/c1=N\c1ccc(F)cc1F` [Example 54], the melting point is 179 to 180 °C.

Turning to `CNC(=O)NCCn1c(-c2ccc(CN3CCOCC3)c(OC)c2)cs/c1=N\c1cccc(F)c1` [Example 31], the melting point lay in the range of 170 to 174 °C.

Regarding `CNC(=O)NCCn1c(-c2ccc(CN3CCOCC3)cc2C)cs/c1=N\c1ccc(F)cc1C` [Example 24], the melting point lay within 122 to 125 °C.

In the case of `CCNC(=O)NCCn1c(-c2ccc(C(=O)N3CCOCC3)cc2)cs/c1=N\c1ccc(F)c(C)c1` [Example 53], the melting point was in the range of 183 to 186 °C.

Take `CNC(=O)NCCn1c(-c2ccc(CN3CCOCC3)cc2OC)cs/c1=N\c1cccc(F)c1F` [Example 30]: the melting point lay within 161 to 165 °C.

As for `CNC(=O)NCCn1c(-c2ccc(CN3CCOCC3)c(OC)c2)cs/c1=N\c1ccc(F)c(C)c1` [Example 21, N-{2-[(2Z)-2-[(4-Fluoro-3-methylphenyl)imino]-4-[3-methoxy-4-(morpholin-4-ylmethyl)phenyl]-1,3-thiazol-3(2H)-yl]ethyl}-N′-methylurea], the “Binding Activity (%) (1 μM)” value with rat lung membrane SMBS came out at 82%. For the same molecule, the inhibition at 10 µM in series [1] stood at 8%.

For `CNC(=O)NCCn1c(-c2ccc(CN3CCOCC3)cc2C)cs/c1=N\c1ccc(F)cc1F` [Example 25], the melting point was in the range of 154 to 160 °C.

With `CNC(=O)NCCn1c(-c2ccc(CCN3CCOCC3)cc2)cs/c1=N\c1ccc(F)cc1F` [Example 47], the melting point lay in the range of 166 to 172 °C.

`CCNC(=O)c1ccc(-c2cs/c(=N\c3ccc(F)cc3)n2CCNC(=O)NC)cc1` [Example 61] registered a melting point of 172 to 178 °C. Besides, the “Binding Activity (%) (1 μM)” value with rat lung membrane SMBS is on record as 62%. The inhibition at 10 µM in series [1] came to 6%.

`CNC(=O)NCCn1c(-c2ccc(CN3CCOCC3)cc2C)cs/c1=N\c1ccc(C)c(F)c1` [Example 22]: the melting point lay in the range of 171 to 174 °C.

`CCNC(=O)NCCn1c(-c2ccc(C(=O)N3CCOCC3)cc2)cs/c1=N\c1ccc(C)c(F)c1` [Example 55] returned a melting point of 175 to 178 °C.

For `CCNC(=O)c1ccc(-c2cs/c(=N\c3cccc(F)c3)n2CCNC(=O)NC)cc1` [Example 60], the melting point fell in the range of 170 to 176 °C.

Turning to `CNC(=O)NCCn1c(-c2ccc(CN3CCOCC3)cc2C)cs/c1=N\c1ccc(F)c(C)c1` [Example 18, N-{2-[(2Z)-2-[(4-Fluoro-3-methylphenyl)imino]-4-[2-methyl-4-(morpholin-4-ylmethyl)phenyl]-1,3-thiazol-3(2H)-yl]ethyl}-N′-methylurea], in the series on rat lung membrane SMBS, the “Binding Activity (%) (1 μM)” value was found to be 88%. Moreover, in series [1], the inhibition at 10 µM amounted to 28%.

As to `CCNC(=O)c1ccc(-c2cs/c(=N\c3cccc(Cl)c3)n2CCNC(=O)NC)cc1` [Example 63], the melting point lay in the range of 185 to 192 °C.

Turning to `CNC(=O)NCCn1c(-c2ccc(CN3CCOCC3)c(OC)c2)cs/c1=N\c1ccc(F)cc1F` [Example 33], the melting point lay in the range of 164 to 169 °C.

As to `CNC(=O)NCCn1c(-c2ccc(CN3CCOCC3)cc2OC)cs/c1=N\c1ccc(C)c(F)c1` [Example 29], the melting point lay in the range of 144 to 150 °C.

`CCNC(=O)NCCn1c(-c2ccc(C(=O)N3CCOCC3)cc2)cs/c1=N\c1cccc(F)c1` [Example 57] gave a melting point of 172 to 177 °C.

`CNC(=O)NCCn1c(-c2ccc(CN3CCOCC3)cc2OC)cs/c1=N\c1cccc(F)c1` [Example 28] came in with a melting point of 163 to 166 °C.

`CNC(=O)NCCn1c(-c2ccc(CN3CCOCC3)cc2C)cs/c1=N\c1cccc(F)c1F` [Example 26] had a melting point of 132 to 135 °C.

With `CNC(=O)NCCn1c(-c2ccc(CN3CCOCC3)c(OC)c2)cs/c1=N\c1cccc(F)c1F` [Example 32], the melting point was in the range of 150 to 153 °C.

`CNC(=O)NCCn1c(-c2ccc(CCN3CCOCC3)cc2)cs/c1=N\c1cccc(F)c1` [Example 45] came in with a melting point of 154 to 160 °C.

The values are drawn from US20110034466A1, “NOVEL FIVE-MEMBERED RING COMPOUND” (priority 2008, published 2011).
